# Data taken from US5616563A, “Glutathione N-hydroxycarbamoyl thioesters and method of inhibiting neoplastic growth” (University of Maryland Baltimore Campus, priority 1994, dated 1997).
# Where two headings read alike, the source gives them in different places.
# Legend:
# [1] = system: Human Leukemia 60 (HL60) cells; assay: Growth inhibition and kill of human leukemia 60 cells; type: cell-based; conditions: for LC50 (concentration for 50% cell kill) / TGI (concentration for total cell growth inhibition) / IC50: 72 hr. incubation; for IC50: read-out: GI (concentration for 50% cell growth inhibition)
# Protocol: The observation that compounds 2 and 6(c) inhibit tumor cell growth, but were not strongly cytotoxic to tumor cells at the concentrations tested, prompted the synthesis of diethyl esters of compounds 6(a), 6(b), and 6(c). These derivatives were then tested with human leukemia cells (HL60 cells) grown in RPMI/fetal calf serum medium at 37° C.
# ^c Concentration for 50% cell kill.
# human erythrocyte Glx I = biological target: T1, human erythrocyte Glx I (Homo sapiens, UniProt Q04760); assay: Inhibition of human erythrocyte glyoxalase I; type: biochemical
# T1 construct: Human erythrocyte Glx I was purified to homogeneity from out-dated human blood; from tissue; host or cells: human erythrocytes (out-dated human blood)
# T1 sequence (Q04760 2-184 limits assumed): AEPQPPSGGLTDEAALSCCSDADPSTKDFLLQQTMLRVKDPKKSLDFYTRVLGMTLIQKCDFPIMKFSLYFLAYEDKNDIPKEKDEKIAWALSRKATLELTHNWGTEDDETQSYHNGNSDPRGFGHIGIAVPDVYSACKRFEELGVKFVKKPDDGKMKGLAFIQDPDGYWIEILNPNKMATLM
# [2] = system: normal human VA-2 fibroblasts; assay: Toxicity to normal human fibroblasts; type: cell-based
# Renal Cancer (ACHN) = assay: NCI tumor cell growth inhibition, renal cancer ACHN; conditions: for LC50 (concentration for 50% cell kill) / TGI (concentration for total cell growth inhibition): 48 hrs. incubation; for IC50: 48 h, read-out: GI (concentration for 50% cell growth inhibition)
# From the text: (§1) ^a Concentration for 50% cell growth inhibition versus nodrug
# (§2) ^b Concentration for total cell growth inhibition versus nodrug
# [3] = of substituent R; cited from earlier work
# glyoxalase I = biological target: T2, glyoxalase I (Saccharomyces cerevisiae, UniProt P50107); conditions: concentration of 50% inhibition of glyoxalase I; c = No inhibitory activity was detected; read-out: I50; cited from earlier work
# T2 sequence (P50107 1-326): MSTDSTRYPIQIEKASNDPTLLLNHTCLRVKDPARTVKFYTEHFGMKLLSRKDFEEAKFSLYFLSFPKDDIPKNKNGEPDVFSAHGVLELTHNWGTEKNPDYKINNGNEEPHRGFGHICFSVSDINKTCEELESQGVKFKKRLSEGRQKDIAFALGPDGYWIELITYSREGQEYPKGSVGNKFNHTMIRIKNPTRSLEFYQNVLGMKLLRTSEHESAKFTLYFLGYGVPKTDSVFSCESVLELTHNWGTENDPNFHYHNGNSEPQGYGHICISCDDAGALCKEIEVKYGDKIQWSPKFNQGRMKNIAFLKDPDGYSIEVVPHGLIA
# L1210 leukemia = conditions: concentration for 50% kill of the cell culture; cited from earlier work
# [4] = biological target: bovine liver glyoxalase II (Bos taurus, UniProt Q3B7M2); assay: Substrate and inhibition studies with bovine liver glyoxalase II; conditions: for Vm (rel.): relative to Vm for S-D-lactoylglutathione, HEPES buffer (100 mM, pH 7.4), 25° C.
# Protocol: (§3) The standard errors for Vm and Km were obtained by analysis of the initial rate data using the HYPER program of Cleland.
# (§4) ^a HEPES buffer (100 mM, pH 7.4), 25° C.
# (§5) ^b Listed values are relative to Vm for SD-lactoylglutathione.
# (§6) ^c Inhibition constants obtained from using the enediol analogs as
# yeast Glx I [5] = biological target: T3, yeast Glx I (Saccharomyces cerevisiae, UniProt P50107); conditions: Hamilton et al. 1992; cited from earlier work
# T3 construct: purchased Sigma Chem. Co
# T3 sequence (P50107 1-326): T2 sequence (P50107 1-326)
# KB cells = conditions: concentration for 50% kill of the cell culture; cited from earlier work
# Ovarian Cancer (SK-OV-3) = assay: NCI tumor cell growth inhibition, ovarian cancer SK-OV-3; conditions: for IC50: SK-OV-3, 48 h, read-out: GI (concentration for 50% cell growth inhibition); for LC50 (concentration for 50% cell kill) / TGI (concentration for total cell growth inhibition): 48 hrs. incubation
# From the text: as §1, §2
# Colon Cancer (KMZOLZ) = assay: NCI tumor cell growth inhibition, colon cancer KMZOLZ; conditions: for IC50: 48 h, read-out: GI (concentration for 50% cell growth inhibition); for LC50 (concentration for 50% cell kill) / TGI (concentration for total cell growth inhibition): KMZOLZ, 48 hrs. incubation
# From the text: as §1, §2
# [6] = system: Non-Small Cell Lung Cancer (HOP-18); assay: NCI tumor cell growth inhibition, non-small cell lung cancer HOP-18; conditions: for LC50 (concentration for 50% cell kill) / TGI (concentration for total cell growth inhibition): 48 hrs. incubation; for IC50: HOP-18, 48 h, read-out: GI (concentration for 50% cell growth inhibition)
# From the text: as §1, §2
# yeast Glx I [7] = biological target: T3, yeast Glx I; assay: Inhibition of yeast glyoxalase I; type: biochemical
# CNS Cancer (SNB-75) = assay: NCI tumor cell growth inhibition, CNS cancer SNB-75; conditions: for inhibition of cell growth: CNS human cancer cells; for IC50: SNB-75, 48 h, read-out: GI (concentration for 50% cell growth inhibition); for LC50 (concentration for 50% cell kill) / TGI (concentration for total cell growth inhibition): SNB-75, 48 hrs. incubation
# From the text: as §1, §2
# Melanoma (UACC-62) = assay: NCI tumor cell growth inhibition, melanoma UACC-62; conditions: for IC50: UACC-62, 48 h, read-out: GI (concentration for 50% cell growth inhibition); for LC50 (concentration for 50% cell kill) / TGI (concentration for total cell growth inhibition): 48 hrs. incubation
# From the text: as §1, §2
# [8] = system: CN(O)C(=O)SC[C@H](NC(=O)CC[C@H](N)C(=O)O)C(=O)NCC(=O)O; assay: purified protein, by the assay type; conditions: other: as substrate, HEPES buffer (100 mM, pH 7.4), 25° C.
# Protocol: as §3, §4, §5, §6
# [9] = Homo sapiens, read-out: inhibition of cell growth
# [10] = Homo sapiens, SK-OV-3, read-out: inhibition of cell growth
# [11] = Homo sapiens, HOP-18, read-out: cell growth inhibition
# [12] = Homo sapiens, SNB-75, read-out: inhibition of cell growth
# [13] = Homo sapiens, UACC-62, read-out: inhibition of cell growth
compound,measurement,setting,value
CCOC(=O)CNC(=O)[C@H](CSC(=O)N(O)c1ccccc1)NC(=O)CC[C@H](N)C(=O)OCC [6a(Et)2],cell killing,"[1]; HL60, 250 to 300 μM",about 100%
same,LC50 (concentration for 50% cell kill),[1]; HL60,200 µM
same,TGI (concentration for total cell growth inhibition),[1]; HL60,126 µM
same,IC50,[1]; HL60,63 µM
same,toxicity versus corresponding unethylated species,"[1]; HL60 cells, RPMI/fetal calf serum medium, 37° C.",more toxic
same,Ki,"human erythrocyte Glx I; Table 7, read-out: Ki (competitive inhibition constants with human erythrocyte glyoxalase I)",> 1000 µM
same,inhibition of cell growth,"[2]; VA-2 fibroblasts, 250 to 300 μM",50-80%
"CN(O)C(=O)SC[C@H](NC(=O)CC[C@H](N)C(=O)O)C(=O)NCC(=O)O [Compound 2, S-(N-Hydroxy N-Methyl Carbamoyl) Glutathione]",LC50 (concentration for 50% cell kill),Renal Cancer (ACHN),> 1000 µM
same,TGI (concentration for total cell growth inhibition),Renal Cancer (ACHN),> 1000 µM
same,IC50,Renal Cancer (ACHN); Homo sapiens,> 1000 µM
same,inhibition at 1000 µM,Renal Cancer (ACHN); [9],~40%
same,effect on cell growth,Renal Cancer (ACHN); concentrations lower than 10^-3 M,no significant effect
same,π (Hansch hydrophobicity constant),[3],0.5
same,IC50,glyoxalase I,9 µM
same,LD50 (L1210),L1210 leukemia,> 0.20 mM
same,Ki,[4],426 ± 77 µM
same,Vm (rel.),[4],(1.7 ± 0.1) × 10^-5
same,higher affinity of the enzyme versus glycyl-ethyl ester 2(Et),yeast Glx I [5],10 fold
same,LD50 (KB),KB cells,0.11 mM
same,Ki,"human erythrocyte Glx I; Phosphate buffer (50 mM, pH 7), 25° C., read-out: Ki Erythrocytes",1.95 ± 0.21 µM
same,IC50,Ovarian Cancer (SK-OV-3); Homo sapiens,316 µM
same,inhibition at 100 µM,Ovarian Cancer (SK-OV-3); [10],20%
same,inhibition at 1000 µM,Ovarian Cancer (SK-OV-3); [10],> 90%
same,LC50 (concentration for 50% cell kill),Ovarian Cancer (SK-OV-3); SK-OV-3,> 1000 µM
same,TGI (concentration for total cell growth inhibition),Ovarian Cancer (SK-OV-3); SK-OV-3,~ 1000 μM
same,IC50,Colon Cancer (KMZOLZ); Homo sapiens,> 1000 µM
same,inhibition of cell growth,"Colon Cancer (KMZOLZ); KMZOL2, ""At this concentration"" (printed after 10^-4 and below)",< 30%
same,effect on cell growth,"Colon Cancer (KMZOLZ); KMZOL2, concentrations of 10^-4 and below",no significant effect
same,LC50 (concentration for 50% cell kill),Colon Cancer (KMZOLZ),> 1000 µM
same,TGI (concentration for total cell growth inhibition),Colon Cancer (KMZOLZ),> 1000 µM
same,LC50 (concentration for 50% cell kill),[6]; HOP-18,> 1000 µM
same,TGI (concentration for total cell growth inhibition),[6]; HOP-18,> 1000 µM
same,IC50,[6]; Homo sapiens,630 µM
same,inhibition at 1000 µM,[6]; [11],> 65%
same,binding energy difference versus deoxy analog 2(a),yeast Glx I [7],about 2.6 Kcal/mole
same,binds more tightly to active site of Glx I than deoxy analog 2(a),yeast Glx I [7],80 fold
same,binds more tightly to yeast Glx I than S-D-lactoylglutathione,yeast Glx I [7],over 30 fold
same,Ki,yeast Glx I [7]; read-out: Ki yeast Glx I,68 µM
same,inhibition of cell growth,CNS Cancer (SNB-75); 10^-4 M or lower,less than 10%
same,IC50,CNS Cancer (SNB-75); Homo sapiens,630 µM
same,inhibition at 1000 µM,CNS Cancer (SNB-75); [12],60%
same,LC50 (concentration for 50% cell kill),CNS Cancer (SNB-75),> 1000 µM
same,TGI (concentration for total cell growth inhibition),CNS Cancer (SNB-75),> 1000 µM
same,IC50,Melanoma (UACC-62); Homo sapiens,> 1000 µM
same,inhibition at 1000 µM,Melanoma (UACC-62); [13],30%
same,effect on cell growth,"Melanoma (UACC-62); UACC-62, 10^-4 or lower",ineffective
same,LC50 (concentration for 50% cell kill),Melanoma (UACC-62); UACC-62,> 1000 µM
same,TGI (concentration for total cell growth inhibition),Melanoma (UACC-62); UACC-62,> 1000 µM
"N[C@@H](CCC(=O)N[C@@H](CSC(=O)N(O)c1ccc(Br)cc1)C(=O)NCC(=O)O)C(=O)O [Compound 6c, S-(N-Hydroxy-N-4-bromophenylcarbamoyl) glutathione]",LC50 (concentration for 50% cell kill),Renal Cancer (ACHN),> 1000 µM
same,TGI (concentration for total cell growth inhibition),Renal Cancer (ACHN),~ 200 μM
same,IC50,Renal Cancer (ACHN); Homo sapiens,25 µM
same,inhibition at 10 µM,Renal Cancer (ACHN); [9],30%
same,inhibition at 100 µM,Renal Cancer (ACHN); [9],~95%
same,π (Hansch hydrophobicity constant),[3],3.25
same,Ki,[4],1.2 ± 0.4 µM
same,Vm (rel.),[4],(2.1 ± 0.4) × 10^-5
same,LC50 (concentration for 50% cell kill),[1]; HL60,~ 300 μM
same,TGI (concentration for total cell growth inhibition),[1]; HL60,63 µM
same,IC50,"[1]; Homo sapiens, HL-60, HL60",20 µM
same,IC50,Ovarian Cancer (SK-OV-3); Homo sapiens,32 µM
same,inhibition at 1 µM,Ovarian Cancer (SK-OV-3); [10],~40%
same,inhibition at 100 µM,Ovarian Cancer (SK-OV-3); [10],> 80%
same,inhibition of cell growth,"Ovarian Cancer (SK-OV-3); SK-OV-3, 10^-5",about 30%
same,LC50 (concentration for 50% cell kill),Ovarian Cancer (SK-OV-3); SK-OV-3,> 1000 µM
same,TGI (concentration for total cell growth inhibition),Ovarian Cancer (SK-OV-3); SK-OV-3,~ 250 μM
same,IC50,Colon Cancer (KMZOLZ); Homo sapiens,40 µM
same,inhibition at 100 µM,Colon Cancer (KMZOLZ); [9],80%
same,inhibition of cell growth,"Colon Cancer (KMZOLZ); KMZOL2, 10^-6 and 10^-5",about 10%
same,LC50 (concentration for 50% cell kill),Colon Cancer (KMZOLZ),> 1000 µM
same,TGI (concentration for total cell growth inhibition),Colon Cancer (KMZOLZ),~ 320 μM
same,cell growth inhibition,"[6]; HOP-18, 10^-6 to 10^-5 M",about 15%
same,LC50 (concentration for 50% cell kill),[6]; HOP-18,> 1000 µM
same,TGI (concentration for total cell growth inhibition),[6]; HOP-18,~ 250 μM
same,IC50,[6]; Homo sapiens,40 µM
same,inhibition at 100 µM,[6]; [11],~80%
same,inhibition of cell growth,CNS Cancer (SNB-75); 10^-6 M and 10^-5 M,about 20%
same,IC50,CNS Cancer (SNB-75); Homo sapiens,63 µM
same,inhibition at 100 µM,CNS Cancer (SNB-75); [12],60%
same,LC50 (concentration for 50% cell kill),CNS Cancer (SNB-75),> 1000 µM
same,TGI (concentration for total cell growth inhibition),CNS Cancer (SNB-75),~ 1000 μM
same,IC50,Melanoma (UACC-62); Homo sapiens,126 µM
same,inhibition at 10 µM,Melanoma (UACC-62); [13],~20%
same,inhibition at 100 µM,Melanoma (UACC-62); [13],50%
same,inhibition of cell growth,"Melanoma (UACC-62); UACC-62, 10^-6 M and lower concentrations",minimal inhibition
same,LC50 (concentration for 50% cell kill),Melanoma (UACC-62); UACC-62,> 1000 µM
same,TGI (concentration for total cell growth inhibition),Melanoma (UACC-62); UACC-62,> 1000 µM
"C[C@@H](O)C(=O)SC[C@H](NC(=O)CC[C@H](N)C(=O)O)C(=O)NCC(=O)O [S-D-lactoylglutathione, reference compound]",IC50,glyoxalase I,77 µM
same,LD50 (L1210),L1210 leukemia,0.08 mM
same,LD50 (KB),KB cells,0.07 mM
same,Ki,yeast Glx I [7],2230 µM
"N[C@@H](CCC(=O)N[C@@H](CSCc1ccc(Br)cc1)C(=O)NCC(=O)O)C(=O)O [S-p-Bromobenzyl glutathione, reference compound]",LC50,"[1]; HL60 cells, text b533",50 µM
same,LC50,"[2]; fibroblasts, text b533",50 µM
bovine liver glyoxalase II (Bos taurus),Km,[8],478 µM
